# Laboratory results: the NIST ThermoML archive (doi:10.1016/j.tca.2010.07.017)
# Numbers after ± are expanded uncertainties.
# Key:
# [1] = 298.15 K; 101.33 kPa; Liquid; Vibrating tube method
# [2] = refractive index (Na D-line) (dimensionless); settings: 298.15 K; 101.33 kPa; Liquid; Standard Abbe refractometry
mass density [1] [kg/m3],refractive index [2],SMILES
882.03 ± 0.1,1.4048 ± 0.0004,C1CCOC1 [tetrahydrofuran]
1028.12 ± 0.11,1.4202 ± 0.0004,"C1COCCO1 [1,4-dioxane]"

SMILES,mass density [1] [kg/m3],refractive index [2]
CC(C)=O [acetone],784.65 ± 0.12,1.3563 ± 0.0004
